This test has as its target RamR (Salmonella enterica, UniProt Q8ZR43, K63T/L66M/C134D/S137G). Particulars: variant 4NB2.1 (4NB2); LB medium, 37 °C; whole-cell biosensor.

In publication PMC10920890, “Biosensor and machine learning-aided engineering of an amaryllidaceae enzyme” (Nature Communications, 2024) one finds EC50 data, which are given here for one molecule.

RamR, sequence (Q8ZR43 whole entry K63T/L66M/C134D/S137G): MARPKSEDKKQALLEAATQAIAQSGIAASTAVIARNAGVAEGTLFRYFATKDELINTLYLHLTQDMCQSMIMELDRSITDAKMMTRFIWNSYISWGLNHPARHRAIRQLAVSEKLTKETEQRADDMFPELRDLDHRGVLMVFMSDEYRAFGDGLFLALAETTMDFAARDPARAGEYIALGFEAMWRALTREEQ

For `COc1ccc(CNCCc2ccc(O)cc2)cc1O` [4′-O-methylnorbelladine], the half-maximal effective concentration (EC50) is 20 µM.
